Experiments:
[1] = test system: FSH-induced changes in ovarian follicular maturation; assay: Immature Rat Test Procedure (FSH-induced organ wet weight); assay type: in vivo; conditions: immature rats, twice daily for three days with half-maximal dose of hFSH; for IC50 (mg/Kg) ovaries: ovarian wet weight; for IC50 (mg/Kg) uterus: uterine wet weight
Procedure: Immature Rat Test Procedure
In order to assess the ability of compounds to affect FSH-induced changes in ovarian follicular maturation in vivo, immature rats (18 days of age) are treated twice daily for three days with compound in the presence of a half-maximal dose of purified human FSH. Animals are treated via the i.p. or p.o. routes. On the fourth day following treatment, animals are euthanized and the ovaries, uterus and spleen (the spleen is a control tissue that should not respond to FHS stimulation) collected for wet weight determination. In each experiment animals treated with vehicle alone or FSH alone are used as negative and positive controls, respectively.

[2] = biological target: T1, FSH receptor (Homo sapiens, UniProt P23945); assay: In Vitro Bio-test Procedure of Agonists and Antagonists to the FSH Receptor (cAMP accumulation in CHO-3D2 cells); assay type: cell-based; set-up: expressed in transfected cells; host or cells: CHO-3D2 cells
T1 sequence (P23945 18-695): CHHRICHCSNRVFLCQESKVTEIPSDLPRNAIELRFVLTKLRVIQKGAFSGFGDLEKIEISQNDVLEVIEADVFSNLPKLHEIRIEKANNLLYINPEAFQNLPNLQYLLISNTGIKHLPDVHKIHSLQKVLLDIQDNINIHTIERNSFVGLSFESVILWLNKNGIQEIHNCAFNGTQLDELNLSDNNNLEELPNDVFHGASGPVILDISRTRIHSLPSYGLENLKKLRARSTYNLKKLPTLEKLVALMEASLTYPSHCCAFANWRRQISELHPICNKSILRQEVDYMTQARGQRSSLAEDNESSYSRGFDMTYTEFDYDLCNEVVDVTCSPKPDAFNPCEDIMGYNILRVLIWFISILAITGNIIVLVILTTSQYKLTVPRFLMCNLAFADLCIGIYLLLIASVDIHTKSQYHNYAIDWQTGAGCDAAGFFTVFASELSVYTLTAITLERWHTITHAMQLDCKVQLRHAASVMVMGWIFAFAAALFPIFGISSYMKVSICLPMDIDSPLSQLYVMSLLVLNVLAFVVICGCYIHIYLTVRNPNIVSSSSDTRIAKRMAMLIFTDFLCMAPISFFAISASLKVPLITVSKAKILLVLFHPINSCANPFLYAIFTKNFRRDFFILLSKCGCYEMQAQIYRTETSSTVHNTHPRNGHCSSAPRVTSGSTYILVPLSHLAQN
Procedure: In Vitro Bio-test Procedure of Agonists and Antagonists to the FSH Receptor
The compounds were subsequently diluted in sterile procedure medium (Optimem (Gibco/BRL, Grand Island, N.Y.)/0.1% BSA) prior to use in the bio-procedure.
Preparation of CHO-3D2 Cells; CHO-3D2 cells were plated into 96-well Nunc tissue culture plates at a density of 30,000 cells/well in DMEM/F12 medium (Gibco/BRL, Grand Island, N.Y.) supplemented with 5% Fetal Bovine Serum (Hyclone, Fetal Clone II), 2 mM L-glutamine and penicillin/streptomycin (100 U/mL). Cells were plated one day prior to performing the bio-procedure.
Procedure: On the day of procedure, the wells were washed two times with 100 ul/well of pre-warmed (37 deg C.) procedure medium. After aspirating the second wash, an additional 100 ul of procedure medium was added to each well and the cells pre-incubated for 30-45 minutes at 37 deg C. In a humidified incubator with 5%CO2/95% air. The cells were then challenged with varying dilutions of the test substance(s) in a 50 ul total incubation volume in procedure medium for 30 minutes at 37 deg C. in the humidified incubator. The challenge was terminated by the addition of 50 ul of 0.2 N HCl to each well. CAMP accumulation in the medium was measured by radioimmunoassay.
Test Groups: In the 96-well format, the plate is organized into 12 columns each containing 8 rows of wells. The plate was split in half to test a single compound in both agonist and antagonist mode on the same plate.
For agonist mode, compounds were tested using 5 different concentrations in a dose-response paradigm using one column as a control (challenge medium alone) in agonist mode.
The 96-well format allowed for the capability to test 4 columns of compound, using one of the remaining columns for negative control (challenge medium alone) and the other remaining column for ampositive control (ED20 of FSH alone).
The doses chosen to test each compound were extrapolated from the initial screening process (receptor binding data). Along with the test compounds, FSH was run in agonist mode using doses ranging from 0.1 ng/mL-1000 ng/mL as a postive control. Cytotoxicity of the compounds were screened by treating cells with the highest concentration of each compound used in the cAMP procedure for 30 minutes followed by washing of the cells 2 times with 100 ul PBS. The cells were then incubated for 5 min at 37 deg C. in the presence of 50 ug/mL Fluorescein diacetate and 20 ug/mL Propidium iodide in 100 ul PBS. The cells were washed two times with 100 ul PBS followed by examination of the cells under a fluorescence microscope using a 490 nm filter. Viable cells stained green throughout, while dead cells had red fluorescent nuclei.
Analysis of Results: cAMP accumulation was expressed as fmol/mL. […] Data were analyzed statistically by analysis of variance and significant differences between treatments and control determined by Dunnett's test. In antagonist mode, a Duncan's test was used.
Reference Compounds: Test compounds were compared to the effect of purified or recombinant human FSH.

[3] = biological target: T1, FSH receptor; assay: FSH Receptor Radioligand Membrane Binding Standard Pharmacological Test Procedure; set-up: expressed in transfected cells; conditions: [125I]FSH binding to membranes of CHO cells stably transfected with the human FSH receptor
In short: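 Membranes from CHO cells stably expressing human FSH receptor; compounds pre-incubated 15 min at room temperature, then [125I]FSH added (diluted to 200 pM before addition) for 2 h at room temperature in pH 7.2 Tris buffer with protease inhibitors and BSA. Bound radioactivity after filtration counted by gamma counter; non-specific binding defined with unlabelled human FSH.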

[4] = biological target: T2, FSH receptor (Rattus norvegicus, UniProt P20395); conditions: literature report; cited from earlier work
T2 construct: endogenous in cells; host or cells: primary ovarian granulosa cells of DES-treated immature Sprague-Dawley rats
T2 sequence (P20395 18-692): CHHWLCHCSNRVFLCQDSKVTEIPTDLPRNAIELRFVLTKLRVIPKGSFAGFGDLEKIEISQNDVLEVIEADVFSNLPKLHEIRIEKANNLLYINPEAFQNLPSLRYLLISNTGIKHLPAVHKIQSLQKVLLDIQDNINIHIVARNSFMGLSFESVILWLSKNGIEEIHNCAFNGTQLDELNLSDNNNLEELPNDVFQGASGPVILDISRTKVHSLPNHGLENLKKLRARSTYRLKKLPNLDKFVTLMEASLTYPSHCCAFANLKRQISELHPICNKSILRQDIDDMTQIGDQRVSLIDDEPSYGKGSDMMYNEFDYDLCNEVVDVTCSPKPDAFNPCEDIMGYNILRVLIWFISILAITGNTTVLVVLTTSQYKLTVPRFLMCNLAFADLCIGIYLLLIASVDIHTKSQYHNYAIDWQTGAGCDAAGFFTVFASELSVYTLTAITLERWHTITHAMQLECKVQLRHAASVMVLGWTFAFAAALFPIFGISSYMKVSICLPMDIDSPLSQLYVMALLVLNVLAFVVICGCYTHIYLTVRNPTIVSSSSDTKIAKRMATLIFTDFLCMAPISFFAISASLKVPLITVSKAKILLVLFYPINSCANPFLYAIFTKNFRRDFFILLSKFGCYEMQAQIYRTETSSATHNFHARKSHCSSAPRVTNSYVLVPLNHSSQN

Compound	IC50 [2] [µM]	IC50 [3] [µM]	other results
CSc1ccc(C(=O)Nc2ccc(/C=C/c3ccc(NC(=O)c4ccc(SC)c(S(=O)(=O)N5CCOCC5)c4)cc3S(=O)(=O)OC(C)C)c(S(=O)(=O)OC(C)C)c2)cc1S(=O)(=O)N1CCOCC1 [Example 27k, 2,2′-[(E)-1,2-Ethenediyl]bis[5-[[4-(methylthio)-3-(4-morpholinylsulfonyl)benzoyl]amino]benzenesulfonic Acid], Bis(1-methylethyl) Ester]	–	–	IC50 (mg/Kg) ovaries ([1]; ip): 1.1 mg/kg; IC50 (mg/Kg) uterus ([1]; ip): 0.5 mg/kg; IC50 (mg/Kg) ovaries ([1]; po): 4.8 mg/kg; IC50 (mg/Kg) uterus ([1]; po): 1.9 mg/kg
CC(C)OS(=O)(=O)c1cc(NC(=O)c2ccc(S(C)(=O)=O)c([N+](=O)[O-])c2)ccc1/C=C/c1ccc(NC(=O)c2ccc(S(C)(=O)=O)c([N+](=O)[O-])c2)cc1S(=O)(=O)OC(C)C [Example 27m, 2,2′-[(E)-1,2-Ethenediyl]bis[5-[[(4-methylsulfonyl)-3-(nitro)-benzoyl]amino]benzenesulfonic Acid], Bis(1-methylethyl) Ester]	–	–	IC50 (mg/Kg) ovaries ([1]; po): 8.4 mg/kg; IC50 (mg/Kg) uterus ([1]; po): 7.9 mg/kg
CCS(=O)(=O)c1ccc(C(=O)Nc2ccc(/C=C/c3ccc(NC(=O)c4ccc(S(=O)(=O)CC)cc4)cc3S(=O)(=O)OC(C)C)c(S(=O)(=O)OC(C)C)c2)cc1 [Example 27z, 2,2′-[(E)-1,2-Ethenediyl]bis[5-[[4-(ethylsulfonyl)benzoyl]amino]benzenesulfonic acid], Bis(1-methylethyl) Ester]	–	–	IC50 (mg/Kg) ovaries ([1]; po): >10 mg/kg; IC50 (mg/Kg) uterus ([1]; po): 10 mg/kg
O=C(CS(=O)(=O)c1ccc(C(=O)Nc2ccc(/C=C/c3ccc(NC(=O)c4ccc(S(=O)(=O)CC(=O)NCCO)cc4)cc3S(=O)(=O)O)c(S(=O)(=O)O)c2)cc1)NCCO [Example 37a, 5-[[4-[[2-[(2-Hydroxyethyl)amino]-2-oxoethyl]sulfonyl]benzoyl]amino]-2-[(E)-2-[4-[[4-[[2-[(2-hydroxyethyl)amino]-2-oxoethyl]sulfonyl]benzoyl]amino]-2-sulfo-phenyl]ethenyl]benzenesulfonic Acid]	2.1	2	–
NC(=O)CS(=O)(=O)c1ccc(C(=O)Nc2ccc(/C=C/c3ccc(NC(=O)c4ccc(S(=O)(=O)CC(N)=O)cc4)cc3S(=O)(=O)O)c(S(=O)(=O)O)c2)cc1 [Example 37b, 5-[[4-[(2-Amino-2-oxoethyl)sulfonyl]benzoyl]amino]-2-[(E)-2-[4-[[4-[(2-amino-2-oxoethyl)sulfonyl]benzoyl]amino]-2-sulfophenyl]ethenyl]-benzenesulfonic Acid]	1.2	2.9	–
COCCOc1ccc(C(=O)Nc2ccc(/C=C/c3ccc(NC(=O)c4ccc(OC)c(S(=O)(=O)N5CCOCC5)c4)cc3S(=O)(=O)O)c(S(=O)(=O)O)c2)cc1 [Example 42, 5-[[4-(2-Methoxyethoxy)benzoyl]amino]-2-[(E)-2-[4-[[4-methoxy-3-(4-morpholinylsulfonyl)benzoyl]amino]-2-sulfo-phenyl]ethenyl]benzenesulfonic Acid]	2.7	6.9	–
COc1ccc(C(=O)Nc2ccc(CCc3ccc(NC(=O)c4ccc(OC)c(S(=O)(=O)N5CCCCC5)c4)cc3S(=O)(=O)O)c(S(=O)(=O)O)c2)cc1S(=O)(=O)N1CCCCC1 [Example 43b]	28	17	–
O=C(Nc1ccc(CCc2ccc(NC(=O)c3cccc(S(=O)(=O)N4CCOCC4)c3)cc2S(=O)(=O)O)c(S(=O)(=O)O)c1)c1cccc(S(=O)(=O)N2CCOCC2)c1 [Example 43d]	13	12	–
COCCOc1ccc(C(=O)Nc2ccc(CCc3ccc(NC(=O)c4ccc(OCCOC)c(S(=O)(=O)N5CCOCC5)c4)cc3S(=O)(=O)O)c(S(=O)(=O)O)c2)cc1S(=O)(=O)N1CCOCC1 [Example 43f, 2,2′-(1,2-Ethanediyl)bis[5-[[4-(2-methoxyethoxy)-3-(4-morpholinylsulfony)benzoyl]amino]benzenesulfonc Acid]]	6.4	5	–
COc1ccc(C(=O)Nc2ccc(CCc3ccc(NC(=O)c4ccc(OC)c(S(=O)(=O)N5CCCC5)c4)cc3S(=O)(=O)O)c(S(=O)(=O)O)c2)cc1S(=O)(=O)N1CCCC1 [Example 43g, 2,2′-(1,2-Ethanediyl)bis[5-[[4-methoxy-3-(1-pyrrolidinylsulfonyl)benzoyl]amino]benzenesulfonic Acid]]	12	7	–
COCCOc1ccc(C(=O)Nc2ccc(CCc3ccc(NC(=O)c4ccc(OC)c(S(=O)(=O)N5CCOCC5)c4)cc3S(=O)(=O)O)c(S(=O)(=O)O)c2)cc1 [Example 43h, 5-[[4-(2-Methoxyethoxy)benzoyl]amino]-2-[2-[4-[[4-methoxy-3-(4-morpholinylsulfonyl)benzoyl]amino]-2-sulfophenyl]ethyl]benzenesulfonic Acid]	12	12	–
Cc1ccc(C(=O)Nc2ccc(S(=O)(=O)O)c3cc(S(=O)(=O)O)cc(S(=O)(=O)O)c23)cc1NC(=O)c1cccc(NC(=O)Nc2cccc(C(=O)Nc3cc(C(=O)Nc4ccc(S(=O)(=O)O)c5cc(S(=O)(=O)O)cc(S(=O)(=O)O)c45)ccc3C)c2)c1 [suramin, Suramin Sodium]	–	–	inhibition of FSH binding to its receptor [4]: inhibit FSH binding to its receptor

Source: patent publication US6355633B1, “Aryl sulfonic acids and derivatives as FSH antagonists” (American Home Products Corporation, priority 1999, dated 2002)
